This is an account of results in ChEMBL document CHEMBL5113529, “Design, Synthesis, and Biological Evaluation of Dual-Target COX-2/CYP51 Inhibitors for the Treatment of Fungal Infectious Diseases” (J Med Chem, 2022).

A word on the IC50: it is the midpoint of a concentration-inhibition curve. Broadly, the MIC50 is an inhibitory concentration at the 50% level, which refers to growth in some studies and to a panel of isolates in others.

The target in data set [1] is T1, Prostaglandin G/H synthase 2 (Homo sapiens, UniProt P35354).
T1 sequence (P35354 whole entry): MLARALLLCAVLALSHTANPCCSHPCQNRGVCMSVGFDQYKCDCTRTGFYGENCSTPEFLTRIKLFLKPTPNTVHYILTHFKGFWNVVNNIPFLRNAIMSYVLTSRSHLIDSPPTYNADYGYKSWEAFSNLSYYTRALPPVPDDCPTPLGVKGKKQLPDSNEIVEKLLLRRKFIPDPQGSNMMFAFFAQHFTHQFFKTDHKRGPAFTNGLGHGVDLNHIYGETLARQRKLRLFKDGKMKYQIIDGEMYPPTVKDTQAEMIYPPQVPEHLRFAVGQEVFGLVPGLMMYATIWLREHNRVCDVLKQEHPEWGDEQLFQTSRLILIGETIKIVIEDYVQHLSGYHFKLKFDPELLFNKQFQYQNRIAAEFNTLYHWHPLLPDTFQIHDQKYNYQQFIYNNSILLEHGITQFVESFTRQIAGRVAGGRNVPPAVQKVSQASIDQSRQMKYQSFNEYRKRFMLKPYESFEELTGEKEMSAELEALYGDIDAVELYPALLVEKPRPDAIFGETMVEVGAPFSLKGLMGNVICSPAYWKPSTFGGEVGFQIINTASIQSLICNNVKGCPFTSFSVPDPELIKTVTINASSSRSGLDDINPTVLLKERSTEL
In words: Inhibition of COX-2 (unknown origin) using arachidonic acid as substrate preincubated for 10 mins followed by substrate addition and measured after 2 mins by immunoassay.

Data set [2] is described as follows: Toxicity in Candida albicans ATCC SC5314 infected-mouse assessed as effect on body weight at 10 ug per 20 g, ip administered on day 2, 4, 6, 8, 10 and 12 and measured on day 14. It counts as organism-based. The following applies: in vivo, 336 h, dose 10 µg, time 14 day.
In data set [3] the test system is Candida albicans. In words: Antifungal actvity against Candida albicans ATCC SC5314 infected in mouse assessed as shrinking of infection region at 10 ug per 20 g, ip administered on day 2, 4, 6, 8, 10 and 12 and measured on day 14. It counts as functional, organism-based. The following applies: dose 10.0 µg, time 14.0 day.
Data set [4] concerns Candida albicans. In words: Antifungal activity against Candida albicans ATCC SC5314 assessed as induction of ROS production by measuring fluorescence intensity incubated for 12 hrs by KGT010-1 staining based fluorescence microscopy. Type of data set: functional, organism-based.
Data set [5] is filed under the species Mus musculus. In words: Antiinflammatory activity against mouse infected with Candida albicans ATCC SC5314 assessed as reduction in NLRP3 expression in spleen by Western blot analysis. Type of data set: functional, organism-based. Background: Immunoblotting shows a protein as a band on a membrane.
For data set [6], the species on record is Mus musculus. In words: Antiinflammatory activity in mouse infected with Candida albicans ATCC SC5314 assessed as reduction in COX-2 expression in spleen by hematoxylin staining based inverted microscopic analysis (reference value: 83.52 a.u.). Type of data set: functional.
A short description of data set [7]: Toxicity in mouse infected with Candida albicans assessed as liver injury at 10 ug per 20 g, ip administered on day 2, 4, 6, 8, 10 and 12 and measured on day 14 by H and E staining based assay. It counts as organism-based. The note with it: in vivo, 336 h, dose 10 µg, time 14 day.
In data set [8] the test system is Candida albicans. In words: Antifungal actvity against Candida albicans ATCC SC5314 infected in mouse assessed as reduction in fungal infection at 10 ug per 20 g, ip administered on day 2, 4, 6, 8, 10 and 12 and measured on day 14 in presence of naproxen. It counts as functional, organism-based. The following applies: dose 10.0 µg, time 14.0 day.
A further data set has as its system Aspergillus fumigatus. In words: Antifungal activity against Aspergillus fumigatus KM8001 assessed as fungal growth inhibition measured after 72 hrs in presence of naproxen by double dilution method. Type of data set: functional.
Another data set concerns Cryptococcus neoformans. In words: Antifungal activity against Cryptococcus neoformans ZKCC 2209 assessed as fungal growth inhibition measured after 72 hrs in presence of naproxen by double dilution method. It counts as functional.
Data set [9] deals with Candida albicans. In words: Antifungal activity against fluconazole- resistant Candida albicans 17# assessed as fungal growth inhibition measured after 72 hrs in presence of naproxen by double dilution method. Type of data set: functional.
In data set [10] the test system is Candida albicans. In words: Antifungal actvity against Candida albicans ATCC SC5314 infected in mouse assessed as reduction in infection at 10 ug per 20 g, ip administered on day 2, 4, 6, 8, 10 and 12 and measured on day 14. The note with it: time 14.0 day. It counts as functional, organism-based.
Data set [11] deals with Candida albicans. In words: Antifungal actvity against Candida albicans ATCC SC5314 infected in mouse assessed as reduction in infection at 10 ug per 20 g, ip administered on day 2, 4, 6, 8, 10 and 12 and measured on day 14 in presence of naproxen. It counts as functional, organism-based. The note with it: time 14.0 day.
A short description of data set [12]: Toxicity in Candida albicans ATCC SC5314 infected-mouse assessed as effect on body weight at 10 ug per 20 g, ip administered on day 2, 4, 6, 8, 10 and 12 and measured on day 14 in presence of naproxen. The note with it: in vivo, 336 h, dose 10 µg, time 14 day. Type of data set: organism-based.
A short description of data set [13]: Toxicity in mouse infected with Candida albicans assessed as lung injury at 10 ug per 20 g, ip administered on day 2, 4, 6, 8, 10 and 12 and measured on day 14 by H and E staining based assay. It counts as organism-based. The note with it: in vivo, 336 h, dose 10 µg, time 14 day.
Data set [14] in a line: Toxicity in mouse infected with Candida albicans assessed as spleen injury at 10 ug per 20 g, ip administered on day 2, 4, 6, 8, 10 and 12 and measured on day 14 by H and E staining based assay. It counts as organism-based. The following applies: in vivo, 336 h, dose 10 µg, time 14 day.
The nature of data set [15]: Toxicity in mouse infected with Candida albicans assessed as kidney injury at 10 ug per 20 g, ip administered on day 2, 4, 6, 8, 10 and 12 and measured on day 14 by H and E staining based assay. It counts as organism-based. The note with it: in vivo, 336 h, dose 10 µg, time 14 day.
The nature of data set [16]: Toxicity in mouse infected with Candida albicans assessed as heart injury at 10 ug per 20 g, ip administered on day 2, 4, 6, 8, 10 and 12 and measured on day 14 by H and E staining based assay. Type of data set: organism-based. The following applies: in vivo, 336 h, dose 10 µg, time 14 day.
Data set [17] is described as follows: Toxicity in mouse infected with Candida albicans assessed as BUN level in plasma at 10 ug per 20 g, ip administered on day 2, 4, 6, 8, 10 and 12 and measured on day 14 in presence of naproxen (reference value: 8.2 +/- 0.5 mmol/L). It counts as organism-based. The following applies: in vivo, 336 h, dose 10 µg, time 14 day.
Data set [18] is filed under the species Mus musculus. In words: Antiinflammatory activity against mouse infected with Candida albicans ATCC SC5314 assessed as reduction in COX-2 expression in spleen in presence of naproxen by Western blot analysis. Type of data set: functional. The arrangement: scale not given: the % may be the effect or the level left.
The species entered for data set [19] is Mus musculus. In words: Antiinflammatory activity in mouse infected with Candida albicans ATCC SC5314 assessed as reduction in MMP-9 expression in spleen in presence of naproxen by hematoxylin staining based inverted microscopic analysis. It counts as functional.
The species named for data set [20] is Mus musculus. In words: Immunostimulatory activity in mouse infected with Candida albicans ATCC SC5314 assessed as reduction in PD-L1 expression in spleen in presence of naproxen by western blot analysis relative to control. It counts as functional. Details: scale not given: the % may be the effect or the level left.
The species named for data set [21] is Mus musculus. In words: Immunostimulatory activity in mouse infected with Candida albicans ATCC SC5314 assessed as increase in CD3+ expression level in spleen in presence of naproxen by immunohistochemical analysis. It counts as functional, organism-based.
The species entered for data set [22] is Mus musculus. In words: Immunostimulatory activity in mouse infected with Candida albicans ATCC SC5314 assessed as increase in CD8+ expression level in spleen in presence of naproxen by immunohistochemical analysis. Type of data set: functional, organism-based.
Data set [23] relates to Candida albicans. In words: Induction of morphological changes in Candida albicans ATCC SC5314 assessed as ribosome abscission measured for 48 to 72 hrs by transmission electron microscopic analysis. Type of data set: functional, organism-based. The note with it: time 48-72 hrs.
Data set [24] has as its system Candida albicans. In words: Induction of morphological changes in Candida albicans ATCC SC5314 assessed as disappearance of nucleus measured for 48 to 72 hrs by transmission electron microscopic analysis. It counts as functional, organism-based. The following applies: time 48-72 hrs.

Calls of active or inactive are those of the source. The rule behind the calls is not given here.

For the molecule `CC(C)NC(=O)[C@@H](Cn1ccnc1)NC(=O)[C@@H](C)c1cccc(C(=O)c2ccccc2)c1`, the IC50 in [1] was 3.02 µM. Also, the Activity result in data set [2] is “Non-Toxic”; in the data set filed under Mus musculus [6], 20.15 a.u. Further, the result in the data set with Candida albicans [3], in the data set on Candida albicans [4] and in the data set filed under Mus musculus [5] was Active.

In the case of `OC(Cn1cncn1)(Cn1cncn1)c1ccc(F)cc1F` [FLUCONAZOLE], the Activity result in data set [7], in [12], in data set [13], in data set [14], in data set [15] and in data set [16] was “Non-Toxic” in each case. Moreover, the Activity in data set [17] is given as 9.5 IU/L; in the data set listed under Mus musculus [18], 39.43%; in the data set listed under Mus musculus [19], 26.05 a.u; in the data set listed under Mus musculus [20] it was 14.27%. Moreover, the outcome in the data set with Candida albicans [8], in the data set with Candida albicans [10], with Candida albicans [11], in the data set on Candida albicans [4], in the data set listed under Mus musculus [21] and in the data set filed under Mus musculus [22] was Active. The MIC50 came to 4 µg/mL with Aspergillus fumigatus, 0.25 µg/mL in the data set on Cryptococcus neoformans and 4 µg/mL with Candida albicans [9].

For the molecule `COc1ccc2cc([C@H](C)C(=O)NC(Cn3cncn3)C(=O)c3ccccc3)ccc2c1` (stereo partly drawn), the Activity entry in [7], in [2], in data set [13], in data set [14], in data set [15] and in data set [16] was “Non-Toxic” each time. In addition, the Activity in the data set listed under Mus musculus [6] was determined as 20.15 a.u. The molecule also registered a concentration for half-maximal inhibition (IC50) in [1] of 1.96 µM. Further, the result with Candida albicans [10], in the data set with Candida albicans [3], in the data set on Candida albicans [23], in the data set on Candida albicans [24] and in the data set listed under Mus musculus [5] was Active.
